According to US7037682B2, “In vitro activity assay for human hepatitis B virus (HBV) DNA polymerase, and its use for screening for inhibitors of HBV DNA polymerase” (Government of the Republic of Singapore, priority 1999, dated 2006):
Entries after “also recorded” stand apart in the source; their conditions may differ.

Tested on: wild type human HBV DNA polymerase
Assay: In vitro priming activity assay of human HBV DNA polymerase (anti-priming testing, nitrocellulose membrane filtration)
Type: biochemical, human hepatitis B virus (HBV)
Conditions: in vitro translated wild type enzyme in wheat germ lysate; [α-32P] dTTP; corresponding nucleotide replaced with the analog; 30° C. for 30 min; FIG. 6
Protocol: Unless otherwise noted, the polymerase activity assay was conducted in solution containing 100 mM Tris HCl (pH 7.5), 10 mM MgCl2, 30 mM NaCl, 10% glycerol, 4 mM dithiothreitol, 100 μM of each unlabeled deoxyribonucleotide triphosphates (dATP, dCTP and dGTP) and 5 μCi [α-^32P] dTTP. The reactions were incubated at 30° C. for 30 min, after which time a 5 μl aliquot was added to 85 μl of tricine sodium dodecyl sulfate-polyacrylamide gel electrophoresis (SDS-PAGE) sample buffer (Novex, U.S.A.), and 10 μl were analyzed on 10% SDS-PAGE. Following electrophoresis, gels were fixed by soaking in 10% methanol plus 10% acetic acid and dried under vacuum. Dried gels were exposed to X-ray film and signals quantified by laser densitometry.
Screening for inhibitors of human HBV DNA polymerase would provide novel therapeutic agents for HBV infection, as effective inhibition of the polymerase activity will lead to inhibition of HBV viral replication. The simplified activity assay reported in the present invention would allow faster analysis of the inhibitory effects of newly found molecules on DNA polymerase of variant HBV carrying mutations on the major surface antigen. Briefly, a candidate inhibitor was first incubated with the wild type human HBV DNA polymerase that was PCR amplified and in vitro translated as reported in the present invention. The incubation was in the presence of [α-^32P] dTTP and with other conditions identical as above-mentioned. Its inhibitory effect may be determined either by laser densitometry following SDS-PAGE analysis, or by measuring the amount of radiolabeled HBV DNA polymerase bound to nitrocellulose membrane after filtration. […] Further assay on the potential inhibitory effect derived from the above-mentioned assay may then be extended to other systems such as HBV-producing cell lines and transgenic animal model.
Depending on the type of label used, detection of the labeled hybrid HBV DNA polymerase product may be achieved by any appropriate means. Generally this may include a step of separating labeled mononucleotide from labeled human HBV DNA polymerase. […] When the label is a radiolabel as is the case in the simplified assay reported in the present invention, then the amount of radioactivity bound to the filter may be quantified using a plate reading scintillation counter.
In the present invention, the following nucleotide analogs capable of inhibiting the HBV DNA polymerase activity may be assayed for their anti-priming activity. […] The remaining radiolabeled human HBV DNA polymerase bound to the nitrocellulose membrane is then measured quantified using a plate reading scintillation counter.

| Structure (SMILES) | anti-priming effect (radiolabeled human HBV DNA polymerase remained on nitrocellulose membrane, as measured by cpm, compared with the control) |
| --- | --- |
| Nc1ncnc2c1ncn2[C@H]1CC[C@@H](COP(=O)(O)OP(=O)(O)OP(=O)(O)O)O1 [ddATP] | no obvious anti-priming effect; also recorded: no anti-priming activity is observed |
| Nc1ccn([C@H]2CC[C@@H](COP(=O)(O)OP(=O)(O)OP(=O)(O)O)O2)c(=O)n1 [ddCTP] | inhibitory effect is observed; also recorded: significantly lower amount |
| Nc1nc2c(ncn2[C@H]2CC[C@@H](COP(=O)(O)OP(=O)(O)OP(=O)(O)O)O2)c(=O)[nH]1 [ddGTP] | inhibitory effect is observed; also recorded: significantly lower amount |
| Cc1cn([C@H]2CC[C@@H](COP(=O)(O)OP(=O)(O)OP(=O)(O)O)O2)c(=O)[nH]c1=O [ddTTP] | no obvious anti-priming effect; also recorded: no anti-priming activity is observed |
